Active and inactive are the calls of the source.
Experiments:
Cannabinoid receptor 2 [1] = target: T1, Cannabinoid receptor 2 (Homo sapiens, UniProt P34972); experiment: SAR analysis of agonists of the Cannabinoid Receptor 2 using an Image-Based Assay - Set 3. [Related pubchem assays (depositor defined):AID2013, AID2026]; format: functional
[2] = target: T2, G-protein coupled receptor 35 (Homo sapiens, UniProt Q9HC97); experiment: SAR analysis of Agonists of the GPR35 Receptor using an Image-Based Assay - Set 4. [Related pubchem assays (depositor defined):AID2013, AID2026]; format: functional
[3] = target: T2, G-protein coupled receptor 35; experiment: SAR analysis of Antagonists of the GPR35 Receptor using an Image-Based Assay - Set 6. [Related pubchem assays (depositor defined):AID2013, AID2026]; format: functional
Cannabinoid receptor 1 [4] = target: T3, Cannabinoid receptor 1 (Homo sapiens, UniProt P21554); experiment: SAR analysis of agonists of the Cannabinoid Receptor 1 using an Image-Based Assay - Set 4. [Related pubchem assays (depositor defined):AID2013, AID2026]; format: functional
[5] = target: G-protein coupled receptor 55 (Homo sapiens, UniProt Q9Y2T6); experiment: SAR Analysis of Selective Antagonists of GPR55 using an Image-Based Assay - Set 4. [Related pubchem assays (depositor defined):AID2013, AID2026]; format: functional;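 further: antagonism of response to 5 µM lysophosphatidylinositol agonist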
Cannabinoid receptor 1 [6] = target: T3, Cannabinoid receptor 1; experiment: SAR analysis of antagonists of the Cannabinoid Receptor 1 using an Image-Based Assay - Set 4. [Related pubchem assays (depositor defined):AID2013, AID2026]; format: functional
Cannabinoid receptor 2 [7] = target: T1, Cannabinoid receptor 2; experiment: SAR analysis of antagonists of the Cannabinoid Receptor 2 using an Image-Based Assay - Set 3. [Related pubchem assays (depositor defined):AID2013, AID2026]; format: functional
Hexokinase-1 = target: T4, Hexokinase-1 (Homo sapiens, UniProt P19367); experiment: hexokinase 1 activators, dose response, selectivity assay for HKDC1 activator project, biochemical (AID 504762); format: functional
T4 sequence (P19367 whole entry): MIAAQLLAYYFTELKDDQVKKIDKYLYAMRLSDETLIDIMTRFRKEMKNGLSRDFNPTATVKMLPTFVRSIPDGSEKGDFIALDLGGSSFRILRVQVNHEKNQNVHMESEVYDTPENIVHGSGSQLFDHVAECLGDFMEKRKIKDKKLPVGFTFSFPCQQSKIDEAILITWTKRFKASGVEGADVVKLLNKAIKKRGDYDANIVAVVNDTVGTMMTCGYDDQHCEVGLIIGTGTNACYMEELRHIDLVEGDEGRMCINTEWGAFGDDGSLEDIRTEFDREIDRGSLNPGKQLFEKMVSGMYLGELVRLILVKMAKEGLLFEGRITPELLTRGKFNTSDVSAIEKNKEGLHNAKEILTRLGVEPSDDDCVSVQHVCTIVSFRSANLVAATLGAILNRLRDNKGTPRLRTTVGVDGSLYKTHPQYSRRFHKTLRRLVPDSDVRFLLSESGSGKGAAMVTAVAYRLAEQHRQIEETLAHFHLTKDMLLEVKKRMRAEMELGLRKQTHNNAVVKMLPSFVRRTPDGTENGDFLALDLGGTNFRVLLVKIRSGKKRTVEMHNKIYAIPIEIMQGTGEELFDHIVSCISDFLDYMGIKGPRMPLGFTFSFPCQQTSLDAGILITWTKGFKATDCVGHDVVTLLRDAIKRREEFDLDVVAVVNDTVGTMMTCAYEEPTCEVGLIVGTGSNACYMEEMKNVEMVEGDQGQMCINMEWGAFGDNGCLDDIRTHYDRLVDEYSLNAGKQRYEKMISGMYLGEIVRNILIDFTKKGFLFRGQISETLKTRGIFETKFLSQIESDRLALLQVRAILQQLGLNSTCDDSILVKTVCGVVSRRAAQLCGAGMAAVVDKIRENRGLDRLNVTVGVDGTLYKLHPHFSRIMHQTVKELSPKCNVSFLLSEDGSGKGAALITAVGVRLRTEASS

Hexokinase HKDC1 = target: T5, Hexokinase HKDC1 (Homo sapiens, UniProt Q2TB90); experiment: HKDC1 hexokinase activators, dose response, biochemical, W721R variant (AID 504730); format: functional
T5 sequence (Q2TB90 whole entry): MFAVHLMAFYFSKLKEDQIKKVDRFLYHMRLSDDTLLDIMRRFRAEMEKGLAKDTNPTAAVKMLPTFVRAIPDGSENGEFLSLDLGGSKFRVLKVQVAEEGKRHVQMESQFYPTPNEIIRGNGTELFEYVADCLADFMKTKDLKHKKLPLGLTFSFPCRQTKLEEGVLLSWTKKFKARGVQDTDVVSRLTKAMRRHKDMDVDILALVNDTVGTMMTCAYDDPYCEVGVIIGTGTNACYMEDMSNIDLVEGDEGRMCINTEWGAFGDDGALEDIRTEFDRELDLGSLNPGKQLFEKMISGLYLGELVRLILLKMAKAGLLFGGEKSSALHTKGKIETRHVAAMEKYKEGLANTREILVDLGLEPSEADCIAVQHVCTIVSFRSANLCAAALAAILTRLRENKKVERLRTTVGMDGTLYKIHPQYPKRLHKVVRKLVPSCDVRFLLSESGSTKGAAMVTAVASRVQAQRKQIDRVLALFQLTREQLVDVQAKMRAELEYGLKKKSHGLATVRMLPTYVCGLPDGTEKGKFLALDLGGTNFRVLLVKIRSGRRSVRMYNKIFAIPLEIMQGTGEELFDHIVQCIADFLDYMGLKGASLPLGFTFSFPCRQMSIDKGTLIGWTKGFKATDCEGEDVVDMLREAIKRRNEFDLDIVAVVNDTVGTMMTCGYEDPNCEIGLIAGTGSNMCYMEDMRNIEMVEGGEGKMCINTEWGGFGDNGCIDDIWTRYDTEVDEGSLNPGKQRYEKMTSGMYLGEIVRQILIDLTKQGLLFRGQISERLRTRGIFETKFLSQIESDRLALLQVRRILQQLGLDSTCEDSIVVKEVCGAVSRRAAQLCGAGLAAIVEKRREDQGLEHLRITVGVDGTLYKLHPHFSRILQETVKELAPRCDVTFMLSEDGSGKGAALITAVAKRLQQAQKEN

[8] = target: T6, Voltage-gated N-type calcium channel alpha-1B subunit/Amyloid beta A4 precursor protein-binding family A member 1 (Homo sapiens, UniProt Q00975+Q02410); format: protein assay
[9] = target: T6, Voltage-gated N-type calcium channel alpha-1B subunit/Amyloid beta A4 precursor protein-binding family A member 1; format: protein assay; remark: listed apart in the source
[10] = target: E3 ubiquitin-protein ligase XIAP (Homo sapiens, UniProt P98170); experiment: Counter Screen using XIAP-Bir3 for Chemical Antagonists of Bir1/2 domains of IAP-family anti-apoptotic proteins. [Related pubchem assays (depositor defined):AID1018, AID1449, AID1514, AID1638, AID1749, AID1750, AID488957, AID488963]

T3 sequence (P21554 whole entry): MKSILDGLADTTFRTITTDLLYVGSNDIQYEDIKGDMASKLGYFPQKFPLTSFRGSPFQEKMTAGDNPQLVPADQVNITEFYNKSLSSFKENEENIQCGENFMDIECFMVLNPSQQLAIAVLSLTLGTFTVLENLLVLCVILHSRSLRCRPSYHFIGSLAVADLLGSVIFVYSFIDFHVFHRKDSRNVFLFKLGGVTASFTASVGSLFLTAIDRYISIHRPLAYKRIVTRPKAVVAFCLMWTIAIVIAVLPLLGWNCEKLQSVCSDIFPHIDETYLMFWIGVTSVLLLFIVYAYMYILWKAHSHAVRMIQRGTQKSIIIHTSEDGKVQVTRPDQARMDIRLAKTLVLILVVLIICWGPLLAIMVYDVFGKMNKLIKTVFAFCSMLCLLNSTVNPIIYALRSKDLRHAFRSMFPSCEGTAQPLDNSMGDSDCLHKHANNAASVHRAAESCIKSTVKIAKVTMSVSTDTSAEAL
T2 sequence (Q9HC97 whole entry): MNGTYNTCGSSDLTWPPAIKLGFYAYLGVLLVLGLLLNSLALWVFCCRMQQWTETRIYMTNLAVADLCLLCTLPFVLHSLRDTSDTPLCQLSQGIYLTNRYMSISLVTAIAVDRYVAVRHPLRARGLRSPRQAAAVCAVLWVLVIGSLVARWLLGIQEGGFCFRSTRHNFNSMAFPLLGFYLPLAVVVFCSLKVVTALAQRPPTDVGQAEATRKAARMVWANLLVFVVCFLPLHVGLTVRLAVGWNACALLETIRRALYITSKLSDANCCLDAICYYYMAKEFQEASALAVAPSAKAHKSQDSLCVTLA
T1 sequence (P34972 whole entry): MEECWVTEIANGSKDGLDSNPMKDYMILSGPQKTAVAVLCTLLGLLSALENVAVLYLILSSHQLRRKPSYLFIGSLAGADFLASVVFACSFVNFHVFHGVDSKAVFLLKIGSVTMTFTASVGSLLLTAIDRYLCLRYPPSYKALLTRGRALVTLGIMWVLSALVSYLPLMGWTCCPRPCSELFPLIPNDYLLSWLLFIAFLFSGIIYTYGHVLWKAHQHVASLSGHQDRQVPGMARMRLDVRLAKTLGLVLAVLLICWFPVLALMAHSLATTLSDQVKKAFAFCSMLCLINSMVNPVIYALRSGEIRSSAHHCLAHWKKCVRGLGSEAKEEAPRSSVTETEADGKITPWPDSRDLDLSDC
T6 sequence (Q00975 whole entry): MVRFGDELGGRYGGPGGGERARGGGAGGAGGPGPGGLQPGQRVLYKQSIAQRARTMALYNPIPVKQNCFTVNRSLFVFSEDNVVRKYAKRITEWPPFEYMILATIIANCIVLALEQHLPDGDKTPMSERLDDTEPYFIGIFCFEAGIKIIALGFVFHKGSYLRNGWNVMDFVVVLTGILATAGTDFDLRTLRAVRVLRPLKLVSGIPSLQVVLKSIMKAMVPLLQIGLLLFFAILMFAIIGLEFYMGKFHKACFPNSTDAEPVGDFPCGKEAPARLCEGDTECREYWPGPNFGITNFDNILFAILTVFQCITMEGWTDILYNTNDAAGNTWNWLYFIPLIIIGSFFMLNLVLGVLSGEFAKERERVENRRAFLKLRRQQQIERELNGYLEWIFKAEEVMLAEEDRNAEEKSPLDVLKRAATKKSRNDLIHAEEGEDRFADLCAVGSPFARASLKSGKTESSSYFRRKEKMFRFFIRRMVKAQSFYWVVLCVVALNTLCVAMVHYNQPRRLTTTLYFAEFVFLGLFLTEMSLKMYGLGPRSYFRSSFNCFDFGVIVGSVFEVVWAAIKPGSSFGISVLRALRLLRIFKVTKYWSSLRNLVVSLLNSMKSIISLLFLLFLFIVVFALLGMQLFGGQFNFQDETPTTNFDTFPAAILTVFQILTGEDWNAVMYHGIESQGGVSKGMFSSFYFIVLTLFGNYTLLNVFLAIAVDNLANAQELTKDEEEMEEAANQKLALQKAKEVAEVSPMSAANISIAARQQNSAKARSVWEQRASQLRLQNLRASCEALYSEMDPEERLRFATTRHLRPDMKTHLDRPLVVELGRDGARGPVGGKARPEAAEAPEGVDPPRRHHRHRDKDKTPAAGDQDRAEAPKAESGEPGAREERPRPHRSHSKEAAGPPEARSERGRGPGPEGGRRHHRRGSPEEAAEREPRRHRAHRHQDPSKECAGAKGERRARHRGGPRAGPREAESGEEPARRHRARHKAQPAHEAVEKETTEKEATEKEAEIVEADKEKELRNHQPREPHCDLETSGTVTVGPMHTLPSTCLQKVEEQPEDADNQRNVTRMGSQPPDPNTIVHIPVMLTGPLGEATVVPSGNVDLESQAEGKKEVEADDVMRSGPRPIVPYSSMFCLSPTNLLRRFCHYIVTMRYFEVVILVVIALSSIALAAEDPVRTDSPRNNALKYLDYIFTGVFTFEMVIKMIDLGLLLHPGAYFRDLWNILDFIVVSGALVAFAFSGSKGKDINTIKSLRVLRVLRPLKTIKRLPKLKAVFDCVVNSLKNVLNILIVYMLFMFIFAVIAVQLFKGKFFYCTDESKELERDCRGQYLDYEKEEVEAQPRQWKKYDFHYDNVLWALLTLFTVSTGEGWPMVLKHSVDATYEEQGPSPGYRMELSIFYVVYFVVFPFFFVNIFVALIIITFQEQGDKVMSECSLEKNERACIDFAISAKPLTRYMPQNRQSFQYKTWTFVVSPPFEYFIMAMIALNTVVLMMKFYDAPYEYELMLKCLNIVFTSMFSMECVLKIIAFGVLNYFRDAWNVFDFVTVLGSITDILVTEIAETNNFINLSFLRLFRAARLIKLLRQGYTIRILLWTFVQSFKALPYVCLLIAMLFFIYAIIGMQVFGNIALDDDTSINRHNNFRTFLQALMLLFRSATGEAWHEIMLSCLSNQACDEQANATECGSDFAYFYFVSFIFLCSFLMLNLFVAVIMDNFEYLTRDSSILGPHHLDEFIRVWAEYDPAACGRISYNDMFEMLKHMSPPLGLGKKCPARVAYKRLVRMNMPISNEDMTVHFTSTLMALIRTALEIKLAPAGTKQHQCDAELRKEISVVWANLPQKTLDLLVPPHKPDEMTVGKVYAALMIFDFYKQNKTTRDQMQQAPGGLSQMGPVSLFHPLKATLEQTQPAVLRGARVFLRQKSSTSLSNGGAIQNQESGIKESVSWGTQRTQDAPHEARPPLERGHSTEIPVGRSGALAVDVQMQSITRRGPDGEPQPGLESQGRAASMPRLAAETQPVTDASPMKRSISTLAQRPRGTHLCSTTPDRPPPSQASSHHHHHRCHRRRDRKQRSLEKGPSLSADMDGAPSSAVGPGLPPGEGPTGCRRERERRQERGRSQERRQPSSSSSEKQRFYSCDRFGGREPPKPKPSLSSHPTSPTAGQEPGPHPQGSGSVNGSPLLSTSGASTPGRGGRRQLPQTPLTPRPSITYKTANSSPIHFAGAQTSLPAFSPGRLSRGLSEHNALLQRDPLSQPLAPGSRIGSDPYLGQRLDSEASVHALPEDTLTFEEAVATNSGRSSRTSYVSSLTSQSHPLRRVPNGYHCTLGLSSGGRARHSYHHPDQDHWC
T6 sequence (Q02410 whole entry): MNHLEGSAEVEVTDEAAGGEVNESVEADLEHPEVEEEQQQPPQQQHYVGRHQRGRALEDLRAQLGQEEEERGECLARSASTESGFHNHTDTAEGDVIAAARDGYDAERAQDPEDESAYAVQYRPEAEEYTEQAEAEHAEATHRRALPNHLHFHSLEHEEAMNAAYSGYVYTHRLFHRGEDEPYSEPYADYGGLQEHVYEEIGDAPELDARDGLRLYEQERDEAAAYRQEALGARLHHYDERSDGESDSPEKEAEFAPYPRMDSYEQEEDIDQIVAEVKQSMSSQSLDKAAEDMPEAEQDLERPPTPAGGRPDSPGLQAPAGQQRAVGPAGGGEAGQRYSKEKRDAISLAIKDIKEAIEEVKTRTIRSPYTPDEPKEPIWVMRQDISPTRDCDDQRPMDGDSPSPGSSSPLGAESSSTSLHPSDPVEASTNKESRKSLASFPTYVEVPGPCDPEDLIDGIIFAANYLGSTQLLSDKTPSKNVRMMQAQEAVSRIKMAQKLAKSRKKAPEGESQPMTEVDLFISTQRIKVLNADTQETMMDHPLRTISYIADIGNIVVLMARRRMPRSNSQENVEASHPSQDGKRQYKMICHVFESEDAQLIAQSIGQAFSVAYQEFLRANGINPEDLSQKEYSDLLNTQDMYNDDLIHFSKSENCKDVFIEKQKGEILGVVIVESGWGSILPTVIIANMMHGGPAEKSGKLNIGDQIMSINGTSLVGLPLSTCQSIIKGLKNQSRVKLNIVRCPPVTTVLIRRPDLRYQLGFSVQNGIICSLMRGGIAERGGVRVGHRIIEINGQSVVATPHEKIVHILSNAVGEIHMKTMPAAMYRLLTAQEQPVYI
Chain of G-protein coupled receptor 55 (Q9Y2T6 whole entry): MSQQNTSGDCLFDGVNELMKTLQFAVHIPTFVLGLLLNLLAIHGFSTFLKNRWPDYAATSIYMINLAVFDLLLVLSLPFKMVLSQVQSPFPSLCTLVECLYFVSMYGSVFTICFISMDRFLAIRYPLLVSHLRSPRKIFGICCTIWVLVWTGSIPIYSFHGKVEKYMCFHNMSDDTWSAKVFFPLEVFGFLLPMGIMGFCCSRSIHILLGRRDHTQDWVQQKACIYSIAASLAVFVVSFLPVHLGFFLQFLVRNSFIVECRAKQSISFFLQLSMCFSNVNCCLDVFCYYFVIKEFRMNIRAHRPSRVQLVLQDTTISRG

Row | EC50 (Cannabinoid receptor 2 [1]) | EC50 [2] | IC50 [3] | EC50 (Cannabinoid receptor 1 [4]) | IC50 [5] | IC50 (Cannabinoid receptor 1 [6]) | IC50 (Cannabinoid receptor 2 [7]) | EC50 (Hexokinase-1) | EC50 (Hexokinase HKDC1) | IC50 [8] | IC50 [9] | IC50 [10] | Compound
1 | > 32 µM (inactive) | > 32 µM (inactive) | > 32 µM (inactive) | > 32 µM (inactive) | 4.63 µM (active) | 18.8 µM (inactive) | > 32 µM (inactive) |  |  |  |  |  | Cc1noc(NS(=O)(=O)c2ccc(NC(=O)c3cc(-c4ccccc4Cl)nc4ccccc34)cc2)c1C
2 |  |  |  |  |  |  |  | 21.7 µM (inactive) | 34.1 µM (inactive) |  |  |  | Cc1ccc2oc(=O)c3cnn(CC(=O)N4CCCCCC4)c3c2c1
3 |  |  |  |  |  |  |  |  |  | 7.16 µM (active) | > 50 µM (inactive) | > 20 µM (inactive) | O=C(Nc1ccc(S(=O)(=O)N2CCOCC2)cc1)c1ccc(O)nc1
4 | > 32 µM (inactive) | > 32 µM (inactive) | > 32 µM (inactive) | > 32 µM (inactive) | 13.1 µM (inactive) | 2.22 µM (active) | > 13.1 µM (inactive) |  |  |  |  |  | Cc1nc(N2CCN(C(=O)COc3ccccc3C)CC2)c2c3c(sc2n1)CCCC3

From ChEMBL document CHEMBL1201862, “PubChem BioAssay data set” (2004)
